Source: the NIST ThermoML archive (doi:10.1021/je020145g)
Numbers after ± are expanded uncertainties.

Experiments:
[1] = DTA
[2] = Molar enthalpy of transition or fusion; conditions: DSC

Normal melting temperature ([1]; Crystal 1) [°C]	Glass transition temperature ([1]; Glass) [°C]	Molar enthalpy of transition or fusion ([2]; Crystal 1) [kcal/mol]	Normal melting temperature ([1]; Crystal) [°C]	Molar enthalpy of transition or fusion ([2]; Crystal) [kcal/mol]	SMILES
3.28 ± 1	-76.59 ± 0.5	2.2 ± 0.0789	–	–	CCCCn1cc[n+](C)c1.F[P-](F)(F)(F)(F)F [1-butyl-3-methylimidazolium hexafluorophosphate]
–	–	–	59.7 ± 1	4.27 ± 0.134	CCn1cc[n+](C)c1.F[P-](F)(F)(F)(F)F [1-ethyl-3-methylimidazolium hexafluorophosphate]
